From publication PMC11483813, “Bombesin-Targeted Delivery of β-Carboline-Based Ir(III) and Ru(II) Photosensitizers for a Selective Photodynamic Therapy of Prostate Cancer” (Inorganic Chemistry, 2024)

Experiments:
MRC-5 fibroblasts = format: cell-based, human; settings: MRC-5; 4 h incubation, kept in the dark 1 h; MTT after 48 h; read-out: IC50 MRC-5 Dark
Experimental: (§1) The effect of Ir-H, Ir-Me, Ru-H, and Ru-Me on cell viability was evaluated in the A549 lung cancer and PC-3 prostate cancer cell lines by MTT assays. PC-3 cells were specifically chosen due to their high expression levels of GRPR on their surface, allowing for further evaluation of the activity of the BN3-derived metallopeptides Ir-BN and Ru-BN.[38],[51] In contrast, A549 cells express low levels of GRPR.[52] MRC-5 fibroblasts were used as a nonmalignant cell model.[53]Table 3 reports the half maximal inhibitory concentration (IC50) values obtained after treating the cells either under dark conditions or upon exposure to blue light at a dose of 24.1 J cm^–2. The photocytotoxicity index (PI), defined as the IC50,dark/IC50,light, is provided for each compound.
(§2) Stock solutions of the complexes and metallopeptides were initially prepared at a concentration of 5 mM in DMSO and then diluted in sterile distilled water to achieve a final concentration of 1 mM, with a resulting DMSO concentration of 20% v/v. Cells were seeded into 96-well plates at a density of 2500 cells/well for A549, 3500 cells/well for PC-3, and 5500 cells/well for MRC-5. Following 24 h of incubation for attachment, cells were treated in triplicate with freshly prepared working solutions of the compounds in the culture medium at concentrations ranging from 0.001 to 100 μM. The maximum DMSO concentration in the working solutions was 2% (v/v). The working concentrations for each compound were adjusted based on their cytotoxicity. Following a 4 h incubation period to allow internalization of the compounds into the cells, the plates were kept in dark conditions or exposed to blue (460 nm) or red (655 nm) light for 1 h using an LED system (LuxLight), providing a total dose of 24.1 J cm^–2. All plates were incubated in the dark for an additional 43 h. Cells were then washed with phosphate-buffered saline (PBS), and 100 μL of fresh culture medium containing 10% of 3-[4,5-dimethylthiazol-2-yl]-2,5 diphenyl tetrazolium bromide (MTT) solution (0.5 mg/mL) (Sigma- Aldrich) was added to each well. After a 2 h incubation period, the formazan crystals were dissolved in DMSO, and the absorbance was measured at 570 nm using a Multiscan Plate Reader (Synergy 4, Biotek, Winooski, USA). The concentration causing a 50% reduction in cell viability (IC50) was determined for each compound with the Gen5 software (BioTek). At least three independent experiments were conducted for each compound.

A549 lung cancer cells = format: cell-based, human; settings: A549; 4 h incubation, kept in the dark 1 h; MTT after 48 h; read-out: IC50 A549 Dark
Experimental: as §1, §2

[1] = test system: PC-3 prostate cancer cells; format: cell-based, human; settings: PC-3; 4 h incubation, kept in the dark 1 h; MTT after 48 h; read-out: IC50 PC-3 Dark
Experimental: as §1, §2

[2] = parameters: method as in earlier work; settings: standard reference; H2O:DMSO (55:45); ref 6 (SI); cited from earlier work

In the case of N.N.[Cl][Pt][Cl] [Cisplatin, reference compound], the IC50 (MRC-5 fibroblasts) is reported as 5.34 ± 0.38 µM, the IC50 (A549 lung cancer cells) is reported as 5.99 ± 1.2 µM and the IC50 [1] is reported as 5.55 ± 0.97 µM.

In the case of O=C([O-])c1c(Cl)c(Cl)c(Cl)c(Cl)c1-c1c2cc(I)c(=O)c(I)c-2oc2c(I)c([O-])c(I)cc12.[Na+].[Na+] [rose bengal], the “singlet oxygen quantum yield (ΦΔ)” value [2] is listed as 0.75.
